Assay results published in patent US20160159861A1, “APJ Receptor Compounds” (priority 2013, published 2016).
Like-named read-outs stand apart in the source and are kept apart here. Peptide text beside a SMILES is read from it.

Biological target: T1, human APJ receptor (hAPJ) (Homo sapiens, UniProt P35414)
T1 construct: expressed in transfected cells
T1 sequence (P35414 1-380): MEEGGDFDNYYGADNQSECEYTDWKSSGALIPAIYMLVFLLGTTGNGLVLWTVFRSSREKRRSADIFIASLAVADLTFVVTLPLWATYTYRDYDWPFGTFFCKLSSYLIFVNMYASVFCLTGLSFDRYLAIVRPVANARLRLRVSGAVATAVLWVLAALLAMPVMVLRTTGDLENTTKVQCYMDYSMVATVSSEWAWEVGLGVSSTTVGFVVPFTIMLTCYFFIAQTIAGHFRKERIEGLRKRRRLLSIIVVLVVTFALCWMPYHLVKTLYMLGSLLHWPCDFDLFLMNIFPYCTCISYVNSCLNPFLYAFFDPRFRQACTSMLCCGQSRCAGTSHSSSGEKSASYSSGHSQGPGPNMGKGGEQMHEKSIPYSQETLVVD
Assay: HTRF cAMP assay: inhibition of NKH477-stimulated cAMP in HEK cells stably expressing hAPJ
Format: cell-based
Settings: for % IA (cAMP inhibition, hAPJ HEK): intrinsic activity; for Ranking: composite class of EC50 (hAPJ), % IA and % histamine or formal (+) charge; for Emax: HEK293, read-out: % IA, bound stated; for inhibition of NKH477-stimulated increase in cAMP, dose dependent: concentration response curves, FIGS. 1 and 2, HEK cells stably expressing APJ
Text: HTRF cAMP Assay and IP-One Assay (Cisbio)
HTRF (homogeneous time resolved fluorescence) is a technology developed by Cisbio Bioassays based on TR-FRET (time-resolved fluorescence resonance energy transfer). Cisbio Bioassays has developed a wide selection of HTRF-based assays compatible with whole cells, thereby enabling functional assays to run under more physiological conditions. The IP-One assays are competitive immunoassays using cryptate-labeled anti-IP1 monoclonal antibody and d2-labeled IP1. IP1 is a relatively stable downstream metabolite of IP3, and accumulates in cells following Gq receptor activation.
cAMP kits based on a competitive immunoassay using cryptate-labeled anti-cAMP antibody and d2-labeled cAMP were used to assay the effects of APJ compounds of the present invention. […] Cells are treated with 1 nG/mL doxycycline and seeded in all white 96 well plates @40 k/well overnight.

[1] = Table 6, hAPJ HEK cells, NKH477-stimulated cAMP, read-out: EC50 (cAMP inhibition, hAPJ HEK)
[2] = HTRF cAMP Assay, per data of Table 6
[3] = HTRF cAMP Assay, per data of Table 6, read-out: EC50 (hAPJ), inhibition of cAMP production, bound stated
[4] = EC50 (cAMP inhibition, hAPJ HEK), Table 6, hAPJ HEK cells, NKH477-stimulated cAMP
[5] = EC50 (hAPJ), inhibition of cAMP production, bound stated, HTRF cAMP Assay, per data of Table 6

CCCCCCCCCCCCCCCC(=O)N[C@H](C(=O)N[C@H](C(=O)N[C@@H](CC(=O)O)C(=O)N[C@@H](CCCNC(=N)N)C(=O)N[C@@H](CO)C(=O)N[C@@H](CO)C(=O)N[C@@H](CCCNC(=N)N)C(=O)N[C@@H](CCC(=O)O)C(=O)N[C@H](CCCCN)C(=O)N[C@@H](CCCNC(=N)N)C(=O)N[C@@H](CCCNC(=N)N)C(=O)N[C@@H](CCC(=O)O)C(=O)N[C@@H](CO)C(=O)N[C@@H](C)C(=O)N[C@@H](CC(=O)O)C(=O)N[C@H](C(=O)N[C@@H](Cc1ccccc1)C(=O)N[C@H](C(N)=O)[C@@H](C)CC)[C@@H](C)CC)C(C)C)[C@@H](C)O [Compound 5] (HELM PEPTIDE1{[CCCCCCCCCCCCCCCC(=O)[*:2]].T.V.D.R.S.S.R.E.[dK].R.R.E.S.A.D.I.F.I.[am]}$$$$V2.0)
EC50 [1]: 40 nM | % IA (cAMP inhibition, hAPJ HEK) (Table 6, hAPJ HEK cells): 41% | Ranking: * (EC50≦50 nM (hAPJ), % IA<50%)

CCCCCCCCCCCCCCCC(=O)N[C@@H](CC(=O)O)C(=O)N[C@H](C(=O)N[C@@H](Cc1c[nH]cn1)C(=O)N[C@@H](CCCNC(=N)N)C(=O)N[C@@H](CO)C(=O)N[C@@H](CO)C(=O)N[C@@H](CCC(=O)O)C(=O)N[C@H](CCCCN)C(=O)N[C@@H](CCCNC(=N)N)C(=O)N[C@@H](CCCNC(=N)N)C(=O)N[C@@H](CO)C(=O)N[C@@H](C)C(=O)N[C@@H](CC(=O)O)C(=O)N[C@@H](CCC(N)=O)C(=O)N[C@@H](Cc1ccccc1)C(=O)N[C@H](C(N)=O)[C@@H](C)CC)C(C)C [Compound 36] (HELM PEPTIDE1{[CCCCCCCCCCCCCCCC(=O)[*:2]].D.V.H.R.S.S.E.[dK].R.R.S.A.D.Q.F.I.[am]}$$$$V2.0)
Emax [2]: ≥ 80% | EC50 [3]: ≤ 25 nM | EC50 [1]: 2 nM | % IA (cAMP inhibition, hAPJ HEK) (Table 6, hAPJ HEK cells): 101% | Ranking: ***** (EC50≦25 nM (hAPJ), % IA≧80% and either % histamine≦35% or formal (+) charge≦1) | inhibition of NKH477-stimulated increase in cAMP, dose dependent: inhibited

CCCCCCCCCCCCCCCC(=O)N[C@H](C(=O)N[C@H](C(=O)N[C@@H](CC(=O)O)C(=O)N[C@@H](CCCNC(=N)N)C(=O)N[C@@H](CO)C(=O)N[C@@H](CO)C(=O)N[C@@H](CCC(=O)O)C(=O)N[C@H](CCCCN)C(=O)N[C@@H](CCCNC(=N)N)C(=O)N[C@@H](CCCNC(=N)N)C(=O)N[C@@H](CO)C(=O)N[C@@H](C)C(=O)N[C@@H](CC(=O)O)C(=O)N[C@@H](Cc1ccc(CN)cc1)C(=O)N[C@@H](Cc1ccccc1)C(=O)N[C@H](C(N)=O)[C@@H](C)CC)C(C)C)[C@@H](C)O [Compound 34, TVDRSSEkRRSAD(p-CH2NH2-Phe)FI] (HELM PEPTIDE1{[CCCCCCCCCCCCCCCC(=O)[*:2]].T.V.D.R.S.S.E.[dK].R.R.S.A.D.[NCc1ccc(C[C@H](N[*:1])C(=O)[*:2])cc1].F.I.[am]}$$$$V2.0)
Emax [2]: 50 to 79% | EC50 [3]: 25 to 50 nM | EC50 [1]: 30 nM | % IA (cAMP inhibition, hAPJ HEK) (Table 6, hAPJ HEK cells): 104% | Ranking: *** (EC50 25-50 nM (hAPJ), % IA 50-79% and either % histamine≦35% or formal (+) charge≦1)

CCCCCCCCCCCCCCCC(=O)N[C@H](C(=O)N[C@H](C(=O)N[C@@H](CCCCN)C(=O)N[C@@H](CCCNC(=N)N)C(=O)N[C@@H](CO)C(=O)N[C@@H](CO)C(=O)N[C@@H](CCC(=O)O)C(=O)N[C@H](CCCCN)C(=O)N[C@@H](CCCNC(=N)N)C(=O)N[C@@H](CCCNC(=N)N)C(=O)N[C@@H](CO)C(=O)N[C@@H](C)C(=O)N[C@@H](CC(=O)O)C(=O)N[C@H](C(=O)N[C@@H](Cc1ccccc1)C(=O)N[C@H](C(N)=O)[C@@H](C)CC)[C@@H](C)CC)C(C)C)[C@@H](C)O [Compound 21] (HELM PEPTIDE1{[CCCCCCCCCCCCCCCC(=O)[*:2]].T.V.K.R.S.S.E.[dK].R.R.S.A.D.I.F.I.[am]}$$$$V2.0)
EC50 [4]: 9 nM | EC50 [5]: ≤ 25 nM | Emax [2]: ≥ 80% | % IA (cAMP inhibition, hAPJ HEK) (Table 6, hAPJ HEK cells): 85% | Ranking: **** (EC50≦25 nM (hAPJ), % IA≧80% and either % histamine>35% or formal (+) charge>1) | inhibition of NKH477-stimulated increase in cAMP, dose dependent: inhibited

CCCCCCCCCCCCCCCC(=O)N[C@H](C(=O)N[C@H](C(=O)N[C@@H](Cc1ccccc1)C(=O)N(C)[C@@H](CCCNC(=N)N)C(=O)N[C@@H](CO)C(=O)N[C@@H](CO)C(=O)N[C@@H](CCC(=O)O)C(=O)N[C@H](CCCCN)C(=O)N[C@@H](CCCNC(=N)N)C(=O)N[C@@H](CCCNC(=N)N)C(=O)N[C@@H](CO)C(=O)N[C@@H](C)C(=O)N[C@@H](CC(=O)O)C(=O)N[C@H](C(=O)N[C@@H](Cc1ccccc1)C(=O)N[C@H](C(N)=O)[C@@H](C)CC)[C@@H](C)CC)C(C)C)[C@@H](C)O [Compound 31] (HELM PEPTIDE1{[CCCCCCCCCCCCCCCC(=O)[*:2]].T.V.F.[meR].S.S.E.[dK].R.R.S.A.D.I.F.I.[am]}$$$$V2.0)
% IA (cAMP inhibition, hAPJ HEK) (Table 6, hAPJ HEK cells): 84% | Ranking: ** (EC50 25-50 nM (hAPJ), % IA 50-79% and either % histamine>35% or formal (+) charge>1)

CCCCCCCCCCCCCCCC(=O)N[C@@H](CC(=O)O)C(=O)N[C@H](C(=O)N[C@@H](Cc1c[nH]cn1)C(=O)N[C@@H](CCCNC(=N)N)C(=O)N[C@@H](CO)C(=O)N[C@@H](CO)C(=O)N[C@@H](CCC(=O)O)C(=O)N[C@H](CCCCN)C(=O)N[C@@H](CCCNC(=N)N)C(=O)N[C@@H](CCCNC(=N)N)C(=O)N[C@@H](CO)C(=O)N[C@@H](C)C(=O)N[C@@H](CC(=O)O)C(=O)N[C@H](C(=O)N[C@@H](Cc1ccccc1)C(=O)N[C@H](C(N)=O)[C@@H](C)CC)[C@@H](C)CC)C(C)C [Compound 35] (HELM PEPTIDE1{[CCCCCCCCCCCCCCCC(=O)[*:2]].D.V.H.R.S.S.E.[dK].R.R.S.A.D.I.F.I.[am]}$$$$V2.0)
EC50 [4]: 32 nM | EC50 [5]: 25 to 50 nM | Emax [2]: 50 to 79% | % IA (cAMP inhibition, hAPJ HEK) (Table 6, hAPJ HEK cells): 90% | Ranking: *** (EC50 25-50 nM (hAPJ), % IA 50-79% and either % histamine≦35% or formal (+) charge≦1)

CCCCCCCCCCCCCCCC(=O)N[C@H](C(=O)N[C@H](C(=O)N[C@@H](CC(=O)O)C(=O)N[C@@H](CCCNC(=N)N)C(=O)N[C@@H](CO)C(=O)N[C@@H](CO)C(=O)N[C@@H](CCC(=O)O)C(=O)N[C@H](CCCCN)C(=O)N[C@@H](CCCNC(=N)N)C(=O)N[C@@H](CCCNC(=N)N)C(=O)N[C@@H](CO)C(=O)N[C@@H](C)C(=O)N[C@@H](CC(=O)O)C(=O)N[C@@H](Cc1ccc(F)cc1)C(=O)N[C@@H](Cc1ccccc1)C(=O)N[C@H](C(N)=O)[C@@H](C)CC)C(C)C)[C@@H](C)O [Compound 33, TVDRSSEkRRSAD(p-fluoro-Phe)FI] (HELM PEPTIDE1{[CCCCCCCCCCCCCCCC(=O)[*:2]].T.V.D.R.S.S.E.[dK].R.R.S.A.D.[O=C([C@H](Cc1ccc(F)cc1)N[*:1])[*:2]].F.I.[am]}$$$$V2.0)
Emax [2]: 50 to 79% | EC50 [3]: 25 to 50 nM | EC50 [1]: 30 nM | % IA (cAMP inhibition, hAPJ HEK) (Table 6, hAPJ HEK cells): 80% | Ranking: *** (EC50 25-50 nM (hAPJ), % IA 50-79% and either % histamine≦35% or formal (+) charge≦1)

CCCCCCCCCCCCCCCC(=O)N[C@H](C(=O)N[C@H](C(=O)N[C@@H](CC(=O)O)C(=O)N[C@@H](CCCNC(=N)N)C(=O)N[C@@H](CO)C(=O)N[C@@H](CO)C(=O)N[C@@H](CCC(N)=O)C(=O)N[C@@H](CCC(=O)O)C(=O)N[C@H](CCCCN)C(=O)N[C@@H](CCCNC(=N)N)C(=O)N[C@@H](CCCNC(=N)N)C(=O)N[C@@H](CO)C(=O)N[C@@H](C)C(=O)N[C@@H](CC(=O)O)C(=O)N[C@H](C(=O)N[C@@H](Cc1ccccc1)C(=O)N[C@H](C(N)=O)[C@@H](C)CC)[C@@H](C)CC)C(C)C)[C@@H](C)O [Compound 6] (HELM PEPTIDE1{[CCCCCCCCCCCCCCCC(=O)[*:2]].T.V.D.R.S.S.Q.E.[dK].R.R.S.A.D.I.F.I.[am]}$$$$V2.0)
EC50 [4]: 19 nM | EC50 [5]: 25 to 50 nM | Emax [2]: 50 to 79% | % IA (cAMP inhibition, hAPJ HEK) (Table 6, hAPJ HEK cells): 77% | Ranking: *** (EC50 25-50 nM (hAPJ), % IA 50-79% and either % histamine≦35% or formal (+) charge≦1)

CCCCCCCCCCCCCCCC(=O)N[C@H](C(=O)N[C@H](C(=O)N[C@@H](CC(=O)O)C(=O)N(C)[C@@H](CCCNC(=N)N)C(=O)N[C@@H](CO)C(=O)N[C@@H](CO)C(=O)N[C@@H](CCC(=O)O)C(=O)N[C@H](CCCCN)C(=O)N[C@@H](CCCNC(=N)N)C(=O)N[C@@H](CCCNC(=N)N)C(=O)N[C@@H](CO)C(=O)N[C@@H](C)C(=O)N[C@@H](CC(=O)O)C(=O)N[C@H](C(=O)N[C@@H](Cc1ccccc1)C(=O)N[C@H](C(N)=O)[C@@H](C)CC)[C@@H](C)CC)C(C)C)[C@@H](C)O [Compound 32] (HELM PEPTIDE1{[CCCCCCCCCCCCCCCC(=O)[*:2]].T.V.D.[meR].S.S.E.[dK].R.R.S.A.D.I.F.I.[am]}$$$$V2.0)
EC50 [4]: 24 nM | EC50 [5]: ≤ 25 nM | Emax [2]: ≥ 80% | % IA (cAMP inhibition, hAPJ HEK) (Table 6, hAPJ HEK cells): 97% | Ranking: **** (EC50≦25 nM (hAPJ), % IA≧80% and either % histamine>35% or formal (+) charge>1) | inhibition of NKH477-stimulated increase in cAMP, dose dependent: inhibited
